Results: PubChem BioAssay (NCI)
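Dose response: 5 concentrations. Exposure: 48 h. Format: 96-well plates. Endpoint: linear interpolation; highest concentration if not reached. Abbreviation: GI50, concentration required for 50% inhibition of growth. TGI marks complete inhibition of growth.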

Columns and labels:
Experiment in all cases: NCI-60 cell line screen, 48 h
[1] = test system: NCI-H460 lung
[2] = test system: NCI-H522 lung
[3] = test system: NCI/ADR-RES ovarian
[4] = test system: OVCAR-3 ovarian
[5] = test system: OVCAR-4 ovarian
[6] = test system: OVCAR-5 ovarian
[7] = test system: OVCAR-8 ovarian
[8] = test system: PC-3 prostate
[9] = test system: RPMI-8226 leukemia
[10] = test system: RXF 393 renal
[11] = test system: SF-268 CNS
[12] = test system: SF-295 CNS
[13] = test system: SF-539 CNS
[14] = test system: SK-MEL-2 melanoma
[15] = test system: SK-MEL-28 melanoma
[16] = test system: SK-MEL-5 melanoma
[17] = test system: SK-OV-3 ovarian
[18] = test system: SN12C renal
[19] = test system: SNB-19 CNS
[20] = test system: SNB-75 CNS
[21] = test system: SR leukemia
[22] = test system: SW-620 colon
[23] = test system: T-47D breast
[24] = test system: TK-10 renal
[25] = test system: U251 CNS
[26] = test system: UACC-257 melanoma
[27] = test system: UACC-62 melanoma
[28] = test system: UO-31 renal

## COc1ccc(-c2oc(=O)ccc2-c2cc(OC)c(OC)c(OC)c2)cc1O
[1]
  GI50: 0.604 µM
  TGI: > 100 µM
[2]
  GI50: 0.425 µM
  TGI: 3.45 µM
[3]
  GI50: 1.48 µM
  TGI: > 100 µM
[4]
  GI50: 0.463 µM
  TGI: 3.55 µM
[5]
  GI50: 6.65 µM
  TGI: > 100 µM
[6]
  GI50: 12.7 µM
  TGI: > 100 µM
[7]
  GI50: 4.34 µM
  TGI: > 100 µM
[8]
  GI50: 0.963 µM
  TGI: > 100 µM
[9]
  GI50: 1.4 µM
  TGI: 6.19 µM
[10]
  GI50: 0.795 µM
  TGI: 3.76 µM
[11]
  GI50: 2.04 µM
  TGI: > 72.1 µM
[12]
  GI50: 1.26 µM
  TGI: > 100 µM
[13]
  GI50: 1.37 µM
  TGI: > 29.9 µM
[14]
  GI50: 2.31 µM
  TGI: > 38.7 µM
[15]
  GI50: 8.85 µM
  TGI: > 100 µM
[16]
  GI50: 0.514 µM
  TGI: 12.7 µM
[17]
  GI50: 1.65 µM
  TGI: > 42.6 µM
[18]
  GI50: 6.4 µM
  TGI: > 100 µM
[19]
  GI50: 4.76 µM
  TGI: > 100 µM
[20]
  GI50: 1.26 µM
  TGI: > 100 µM
[21]
  GI50: 0.267 µM
  TGI: > 23.8 µM
[22]
  GI50: 0.612 µM
  TGI: > 47.6 µM
[23]
  GI50: 0.553 µM
  TGI: > 100 µM
[24]
  GI50: 14.1 µM
  TGI: > 84.1 µM
[25]
  GI50: 1.1 µM
  TGI: > 100 µM
[26]
  GI50: 9.87 µM
  TGI: > 100 µM
[27]
  GI50: 1.23 µM
  TGI: > 49.9 µM
[28]
  GI50: 3.72 µM
  TGI: > 51.1 µM
